Data reported in US10351609B2, “Cell-based assay for determining mTOR activity” (Medical Diagnostic Laboratories, LLC, priority 2016, dated 2019).
Like-named read-outs stand apart in the source and are kept apart here.

Tests used:
mTOR [1] = target: T1, mTOR (Homo sapiens, UniProt P42345); experiment: 3A1 clone with stable expression of SB-eIF4E/LB-4E-BP2 (stable pool and single-cell clones); assay type: cell-based; settings: 3A1 stable cell line pool expressing SB-eIF4E/LB-4E-BP2, FIG. 12
Experimental: Taking the 3A1 clone, we created a stable cell line pool (cells that underwent a minimum of 2 weeks of hygromycin selection) with stable expression of SB-eIF4E/ LB-4E-BP2.
Three to five days after transfection, the transfected cells were trypsinized and replated on to 6-count of 10 cm plates containing 300 μg/ml of hygromycin (ThermoFisher). For 7 days, media was replaced every 2-3 days with fresh hygromycin, after which cells were trypsinized, pooled and concentrated, and counted for plating as single cells on to 96-well plates. Fifty ml containing 400 cells were plated on to 5-count of 96-well plates with each well containing 100 μl of media+cell. DMEM conditioned with previous incubation with HEK293 cells was saved, filtered, and used for single-cell plating. The remainder of the hygromycin treated cells was then pooled and used as “stable pools” for experimentation.

S2035I mTOR [2] = target: T2, S2035I mTOR (Homo sapiens, UniProt P42345, S2035I); experiment: B10 clone stably expressing SB-eIF4E, transient LB-4E-BP2 and S2035I mTOR; assay type: cell-based; settings: FIG. 18
T2 construct: our assay has the ability to measure the function of full-length mTOR and its genetic variants; expressed in transfected cells

S2035I mTOR [3] = target: T2, S2035I mTOR; experiment: 3A1 clone stably expressing SB-eIF4E, transiently expressing LB-4E-BP2 and S2035I mTOR; assay type: cell-based; settings: 3A1 stably SB-eIF4E, concentration curves at least 5 logs, FIG. 16
Excerpt: (§1) To overcome this issue, we created a stable cell pool with the 3A1 clone, stably expressing only SB-eIF4E.

mTOR [4] = target: T1, mTOR; assay type: cell-based; settings: 3A1 clone transiently transfected with SB-eIF4E/LB-4E-BP2, FIG. 11
Excerpt: We compared single-cell clone termed “3A1” (FIG. 10A,B) with single-cell clone termed “1C3” (FIG. 10C,D) in the assay containing either LB-4E-BP1(Figure 10A,C) or LB-4E-BP2 (FIG. 10B,D).

WT mTOR [5] = target: T3, WT mTOR (Homo sapiens, UniProt P42345); experiment: B10 clone (4E-BP dKO, MTOR genomic modification) stably expressing SB-eIF4E, transient LB-4E-BP2 and WT mTOR; assay type: cell-based; settings: FIG. 18
T3 construct: our assay has the ability to measure the function of full-length mTOR and its genetic variants; expressed in transfected cells
Excerpt: With the goal of our assay to measure the effects of mTOR mutations in combination with different types of mTOR inhibitors, we performed our assay using the B10 cell clone stably expressing SB-eIF4E and transiently expressing LB-4E-BP2 and either WT or L2185A mTOR.

cellular proliferation = settings: Hsieh et al., 2012; read-out: EC50 for the inhibition of cellular proliferation; cited from earlier work
WT mTOR [6] = target: T3, WT mTOR; experiment: 3A1 clone stably expressing SB-eIF4E, transiently expressing LB-4E-BP2 and WT mTOR; assay type: cell-based; settings: 3A1 stably SB-eIF4E, concentration curves at least 5 logs, FIG. 16
Excerpt: as §1

[7] = test system: phosphorylation of 4E-BP1; settings: read-out: reported IC50 in inhibiting phosphorylation of 4E-BP1; Western blot; Sedrani et al., 1998; cited from earlier work
[8] = test system: phosphorylation of the ribosomal protein S6; settings: Guichard et al., 2015; read-out: IC50 for inhibition of phosphorylation of the ribosomal protein S6; cited from earlier work

CO[C@@H](C)Cn1c(=O)n(C)c2cnc3ccc(-c4cncc(C(C)(C)O)c4)cc3c21 [LY3023414]
concentration dependence of luminescence (mTOR [1]): concentration-dependent increase in luminescence

CO[C@H]1CC[C@H](N2C(=O)CNc3ncc(-c4ccc(C(C)(C)O)nc4)nc32)CC1 [CC223]
concentration dependence of luminescence (mTOR [1]): concentration-dependent increase in luminescence

CC(C)n1nc(-c2ccc3oc(N)nc3c2)c2c(N)ncnc21 [INK128]
concentration dependence of signal (S2035I mTOR [2]): concentration-dependent increase for both mTORs
concentration dependence of signal (S2035I mTOR [3]): concentration-dependent increase
concentration dependence of luminescence (mTOR [4]): concentration dependent activation
concentration dependence of signal (WT mTOR [5]): concentration-dependent increase for both mTORs
EC50 (cellular proliferation): 17 nM
concentration dependence of luminescence (mTOR [1]): concentration-dependent activation of luminescence
concentration dependence of signal (WT mTOR [6]): concentration-dependent increase in signal

CO[C@H]1C[C@@H]2CC[C@@H](C)[C@@](O)(O2)C(=O)C(=O)N2CCCC[C@H]2C(=O)O[C@H]([C@H](C)C[C@@H]2CC[C@@H](OCCO)[C@H](OC)C2)CC(=O)[C@H](C)/C=C(\C)[C@@H](O)[C@@H](OC)C(=O)[C@H](C)C[C@H](C)/C=C/C=C/C=C/1C [everolimus]
concentration dependence of signal (S2035I mTOR [2]): cleaner difference between the WT and S2035I mTOR
concentration dependence of signal (S2035I mTOR [3]): rapamycin resistance
concentration dependence of luminescence (mTOR [4]): concentration dependent activation
IC50 [7]: 1.6 to 2.4 nM
concentration dependence of luminescence (mTOR [1]): concentration-dependent activation of luminescence
concentration dependence of signal (WT mTOR [6]): concentration-dependent increase in signal

CNC(=O)c1cccc(-c2ccc3c(N4CCOC[C@@H]4C)nc(N4CCOC[C@@H]4C)nc3n2)c1 [AZD2014]
IC50 [8]: 210 nM
concentration dependence of signal (S2035I mTOR [2]): concentration-dependent increase for both mTORs
concentration dependence of signal (S2035I mTOR [3]): concentration-dependent increase
concentration dependence of luminescence (mTOR [4]): concentration dependent activation
concentration dependence of signal (WT mTOR [5]): concentration-dependent increase for both mTORs
concentration dependence of luminescence (mTOR [1]): concentration-dependent activation of luminescence
concentration dependence of signal (WT mTOR [6]): concentration-dependent increase in signal

CCc1cncnc1N1CCN(Cc2nc3ccc(C(F)(F)F)cc3[nH]2)CC1 [PF4708671]
concentration dependence of luminescence (mTOR [1]): did not
